Assay results as given in patent publication US11006631B2, “Substituted pyrimidinyloxy pyridine derivatives as herbicides” (FMC Corporation, priority 2015, dated 2021).

Assays:
Assay type in all cases: in vivo
[1] = test system: barnyardgrass (Echinochloa crus-galli); test: Test A preemergence, barnyardgrass; details: 0 to 100 scale
Source text: (§1) Seeds of plant species selected from bamyardgrass (Echinochloa crus-galli), kochia (Kochia scoparia), ragweed (common ragweed, Ambrosia elatior), ryegrass, Italian (Italian ryegrass, Lolium multiflorum), foxtail, giant (giant foxtail, Setaria faberii), pigweed (Amaranthus retroflexus), crabgrass, large (large crabgrass, Digitaria sanguinalis), momingglory (Ipomoea spp.), velvetleaf (Abutilon theophrasti), wheat (Triticum aestivum), and corn (Zea mays) were planted into a blend of loam soil and sand and treated preemergence with a directed soil spray using test chemicals formulated in a non-phytotoxic solvent mixture which included a surfactant. At the same time, plants selected from these crop and weed species and also blackgrass (Alopecurus myosuroides), and galium (catchweed bedstraw, Galium aparine) were planted in pots containing the same blend of loam soil and sand and treated with postemergence applications of test chemicals formulated in the same manner. Plants ranged in height from 2 to 10 cm and were in the one- to two-leaf stage for the postemergence treatment. Treated plants and untreated controls were maintained in a greenhouse for approximately 10 days, after which time all treated plants were compared to untreated controls and visually evaluated for injury. Plant response ratings, summarized in Table A, are based on a 0 to 100 scale where 0 is no effect and 100 is complete control. A dash (-) response means no test result.

[2] = test system: foxtail, giant (giant foxtail, Setaria faberii); test: Test A preemergence, foxtail, giant; details: 0 to 100 scale
Source text: as §1

[3] = test system: pigweed (Amaranthus retroflexus); test: Test A preemergence, pigweed; details: 0 to 100 scale
Source text: as §1

[4] = test system: crabgrass, large (large crabgrass, Digitaria sanguinalis); test: Test A preemergence, crabgrass, large; details: 0 to 100 scale
Source text: as §1

[5] = test system: morningglory (Ipomoea spp.); test: Test A preemergence, morningglory; details: 0 to 100 scale
Source text: as §1

[6] = test system: velvetleaf (Abutilon theophrasti); test: Test A preemergence, velvetleaf; details: 0 to 100 scale
Source text: as §1

[7] = test system: wheat (Triticum aestivum); test: Test A preemergence, wheat; details: 0 to 100 scale
Source text: as §1

corn (Zea mays) [8] = test: Test A preemergence, corn; details: 0 to 100 scale
Source text: as §1

[9] = test system: barnyardgrass (Echinochloa crus-galli); test: Test A postemergence, barnyardgrass; details: 0 to 100 scale
Source text: as §1

[10] = test system: foxtail, giant (giant foxtail, Setaria faberii); test: Test A postemergence, foxtail, giant; details: 0 to 100 scale
Source text: as §1

[11] = test system: pigweed (Amaranthus retroflexus); test: Test A postemergence, pigweed; details: 0 to 100 scale
Source text: as §1

[12] = test system: crabgrass, large (large crabgrass, Digitaria sanguinalis); test: Test A postemergence, crabgrass, large; details: 0 to 100 scale
Source text: as §1

[13] = test system: morningglory (Ipomoea spp.); test: Test A postemergence, morningglory; details: 0 to 100 scale
Source text: as §1

[14] = test system: velvetleaf (Abutilon theophrasti); test: Test A postemergence, velvetleaf; details: 0 to 100 scale
Source text: as §1

[15] = test system: wheat (Triticum aestivum); test: Test A postemergence, wheat; details: 0 to 100 scale
Source text: as §1

corn (Zea mays) [16] = test: Test A postemergence, corn; details: 0 to 100 scale
Source text: as §1

rice (Oryza sativa) = test: Test B flooded paddy test, rice; details: Flood, 250 g ai/ha; scale of 0 to 100
Experimental: (§2) Plant species in the flooded paddy test selected from rice (Oryza sativa), sedge, umbrella (small-flower umbrella sedge, Cyperus difformis), ducksalad (Heteranthera limosa), and barnyardgrass (Echinochloa crus-galli) were grown to the 2-leaf stage for testing. At time of treatment, test pots were flooded to 3 cm above the soil surface, treated by application of test compounds directly to the paddy water, and then maintained at that water depth for the duration of the test. Treated plants and controls were maintained in a greenhouse for 13 to 15 days, after which time all species were compared to controls and visually evaluated. Plant response ratings, summarized in Table B, are based on a scale of 0 to 100 where 0 is no effect and 100 is complete control. A dash (-) response means no test result.

[17] = test system: sedge, umbrella (small-flower umbrella sedge, Cyperus difformis); test: Test B flooded paddy test, sedge, umbrella; details: Flood, 250 g ai/ha; scale of 0 to 100
Experimental: as §2

[18] = test system: ducksalad (Heteranthera limosa); test: Test B flooded paddy test, ducksalad; details: Flood, 250 g ai/ha; scale of 0 to 100
Experimental: as §2

kochia (Kochia scoparia) [19] = test: Test A preemergence, kochia; details: 0 to 100 scale
Source text: as §1

[20] = test system: ragweed (common ragweed, Ambrosia elatior); test: Test A preemergence, ragweed; details: 0 to 100 scale
Source text: as §1

[21] = test system: ryegrass, Italian (Italian ryegrass, Lolium multiflorum); test: Test A preemergence, ryegrass, Italian; details: 0 to 100 scale
Source text: as §1

kochia (Kochia scoparia) [22] = test: Test A postemergence, kochia; details: 0 to 100 scale
Source text: as §1

[23] = test system: ragweed (common ragweed, Ambrosia elatior); test: Test A postemergence, ragweed; details: 0 to 100 scale
Source text: as §1

[24] = test system: ryegrass, Italian (Italian ryegrass, Lolium multiflorum); test: Test A postemergence, ryegrass, Italian; details: 0 to 100 scale
Source text: as §1

[25] = test system: blackgrass (Alopecurus myosuroides); test: Test A postemergence, blackgrass; details: 0 to 100 scale
Source text: as §1

[26] = test system: galium (catchweed bedstraw, Galium aparine); test: Test A postemergence, galium; details: 0 to 100 scale
Source text: as §1

[27] = test system: barnyardgrass (Echinochloa crus-galli); test: Test B flooded paddy test, barnyardgrass; details: Flood, 250 g ai/ha; scale of 0 to 100
Experimental: as §2

**Q.** What does the source list for `Clc1cnc(Oc2cccnc2-n2cc(-c3ccccc3)cn2)nc1` [Compound 4]?
**A.** Plant response rating, Barnyardgrass ([1]; 125 g ai/ha): 0; Plant response rating, Barnyardgrass ([1]; 500 g ai/ha): 0; Plant response rating, Foxtail, Giant ([2]; 125 g ai/ha): 0; Plant response rating, Foxtail, Giant ([2]; 500 g ai/ha): 0; Plant response rating, Pigweed ([3]; 125 g ai/ha): 0; Plant response rating, Pigweed ([3]; 500 g ai/ha): 0; Plant response rating, Crabgrass, Large ([4]; 125 g ai/ha): 0; Plant response rating, Crabgrass, Large ([4]; 500 g ai/ha): 0; Plant response rating, Morningglory ([5]; 125 g ai/ha): 0; Plant response rating, Morningglory ([5]; 500 g ai/ha): 0; Plant response rating, Velvetleaf ([6]; 125 g ai/ha): 0; Plant response rating, Velvetleaf ([6]; 500 g ai/ha): 0; Plant response rating, Wheat ([7]; 125 g ai/ha): 0; Plant response rating, Wheat ([7]; 500 g ai/ha): 0; Plant response rating, Corn (corn (Zea mays) [8]; 125 g ai/ha): 0; Plant response rating, Corn (corn (Zea mays) [8]; 500 g ai/ha): 0; Plant response rating, Barnyardgrass ([9]; 125 g ai/ha): 0; Plant response rating, Barnyardgrass ([9]; 500 g ai/ha): 20; Plant response rating, Foxtail, Giant ([10]; 125 g ai/ha): 0; Plant response rating, Foxtail, Giant ([10]; 500 g ai/ha): 0; Plant response rating, Pigweed ([11]; 125 g ai/ha): 20; Plant response rating, Pigweed ([11]; 500 g ai/ha): 70; Plant response rating, Crabgrass, Large ([12]; 125 g ai/ha): 0; Plant response rating, Crabgrass, Large ([12]; 500 g ai/ha): 0; Plant response rating, Morningglory ([13]; 125 g ai/ha): 0; Plant response rating, Morningglory ([13]; 500 g ai/ha): 10; Plant response rating, Velvetleaf ([14]; 125 g ai/ha): 0; Plant response rating, Velvetleaf ([14]; 500 g ai/ha): 0; Plant response rating, Wheat ([15]; 125 g ai/ha): 0; Plant response rating, Wheat ([15]; 500 g ai/ha): 0; Plant response rating, Corn (corn (Zea mays) [16]; 125 g ai/ha): 0; Plant response rating, Corn (corn (Zea mays) [16]; 500 g ai/ha): 30; Plant response rating, Rice (rice (Oryza sativa)): 10; Plant response rating, Sedge, Umbrella [17]: 70; Plant response rating, Ducksalad [18]: 0

**Q.** Which results are given for `[O-][n+]1cccc(Oc2ncc(F)cn2)c1-n1cc(Cl)cn1` [Compound 9]?
**A.** Plant response rating, Barnyardgrass ([1]; 31 g ai/ha): 0; Plant response rating, Barnyardgrass ([1]; 125 g ai/ha): 0; Plant response rating, Kochia (kochia (Kochia scoparia) [19]; 31 g ai/ha): 0; Plant response rating, Kochia (kochia (Kochia scoparia) [19]; 125 g ai/ha): 0; Plant response rating, Ragweed ([20]; 31 g ai/ha): 0; Plant response rating, Ragweed ([20]; 125 g ai/ha): 0; Plant response rating, Ryegrass, Italian ([21]; 31 g ai/ha): 0; Plant response rating, Ryegrass, Italian ([21]; 125 g ai/ha): 0; Plant response rating, Foxtail, Giant ([2]; 31 g ai/ha): 0; Plant response rating, Foxtail, Giant ([2]; 125 g ai/ha): 0; Plant response rating, Pigweed ([3]; 31 g ai/ha): 0; Plant response rating, Pigweed ([3]; 125 g ai/ha): 20; Plant response rating, Barnyardgrass ([9]; 31 g ai/ha): 0; Plant response rating, Barnyardgrass ([9]; 125 g ai/ha): 0; Plant response rating, Kochia (kochia (Kochia scoparia) [22]; 31 g ai/ha): 10; Plant response rating, Kochia (kochia (Kochia scoparia) [22]; 125 g ai/ha): 50; Plant response rating, Ragweed ([23]; 31 g ai/ha): 10; Plant response rating, Ragweed ([23]; 125 g ai/ha): 30; Plant response rating, Ryegrass, Italian ([24]; 31 g ai/ha): 0; Plant response rating, Ryegrass, Italian ([24]; 125 g ai/ha): 0; Plant response rating, Foxtail, Giant ([10]; 31 g ai/ha): 0; Plant response rating, Foxtail, Giant ([10]; 125 g ai/ha): 0; Plant response rating, Pigweed ([11]; 31 g ai/ha): 30; Plant response rating, Pigweed ([11]; 125 g ai/ha): 50; Plant response rating, Wheat ([15]; 31 g ai/ha): 0; Plant response rating, Wheat ([15]; 125 g ai/ha): 0; Plant response rating, Corn (corn (Zea mays) [16]; 31 g ai/ha): 0; Plant response rating, Corn (corn (Zea mays) [16]; 125 g ai/ha): 0; Plant response rating, Blackgrass ([25]; 31 g ai/ha): 0; Plant response rating, Blackgrass ([25]; 125 g ai/ha): 0; Plant response rating, Galium ([26]; 31 g ai/ha): 10; Plant response rating, Galium ([26]; 125 g ai/ha): 30; Plant response rating, Rice (rice (Oryza sativa)): 0; Plant response rating, Sedge, Umbrella [17]: 0; Plant response rating, Ducksalad [18]: 0; Plant response rating, Barnyardgrass [27]: 0
